Reference: patent US5561113A, “New pseudopeptide compounds of neurokinins” (priority 1994, dated 1996)
Counter-ions that a name gives are not always drawn.

Assays:
human receptors NK1 = biological target: T1, human receptors NK1 (Homo sapiens, UniProt P25103); assay: Affinity for the human NK1 receptor on IM-9 lymphoblasts; assay type: binding; conditions: human lymphoblasts IM-9 expressing NK1
T1 construct: human lymphoblasts IM-9 specifically expressing the NK1 receptor; endogenous in cells; host or cells: IM-9 human lymphoblasts
T1 sequence (P25103 whole entry): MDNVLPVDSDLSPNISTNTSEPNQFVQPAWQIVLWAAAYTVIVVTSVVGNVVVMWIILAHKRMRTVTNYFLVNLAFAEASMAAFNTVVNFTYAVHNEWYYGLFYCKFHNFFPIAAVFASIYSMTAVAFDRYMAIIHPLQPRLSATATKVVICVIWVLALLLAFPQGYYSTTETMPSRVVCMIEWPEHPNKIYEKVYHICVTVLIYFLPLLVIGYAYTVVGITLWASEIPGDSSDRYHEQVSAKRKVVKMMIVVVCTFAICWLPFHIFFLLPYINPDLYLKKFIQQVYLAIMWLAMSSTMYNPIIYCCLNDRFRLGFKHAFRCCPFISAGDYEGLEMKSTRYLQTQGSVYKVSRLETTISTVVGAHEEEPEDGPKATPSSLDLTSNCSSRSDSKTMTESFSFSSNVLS
From the text: (§1) The affinity for the human receptors NK1 and NK2 was studied on the human lymphoblasts IM-9 specifically expressing the NK1 receptor as described by D. G. PAYAN et al. (J. Biol. Chem. 1986, 261, 14321-14329)and on CHO-K1 cells transfected with the NK2 receptor based on the "CellPhect transfection" kit (Pharmacia).

human receptors NK2 = biological target: T2, human receptors NK2 (Homo sapiens, UniProt P21452); assay: Affinity for the human NK2 receptor on transfected CHO-K1 cells; assay type: binding; conditions: CHO-K1 cells transfected with NK2 receptor
T2 construct: expressed in transfected cells; host or cells: CHO-K1
T2 sequence (P21452 1-398): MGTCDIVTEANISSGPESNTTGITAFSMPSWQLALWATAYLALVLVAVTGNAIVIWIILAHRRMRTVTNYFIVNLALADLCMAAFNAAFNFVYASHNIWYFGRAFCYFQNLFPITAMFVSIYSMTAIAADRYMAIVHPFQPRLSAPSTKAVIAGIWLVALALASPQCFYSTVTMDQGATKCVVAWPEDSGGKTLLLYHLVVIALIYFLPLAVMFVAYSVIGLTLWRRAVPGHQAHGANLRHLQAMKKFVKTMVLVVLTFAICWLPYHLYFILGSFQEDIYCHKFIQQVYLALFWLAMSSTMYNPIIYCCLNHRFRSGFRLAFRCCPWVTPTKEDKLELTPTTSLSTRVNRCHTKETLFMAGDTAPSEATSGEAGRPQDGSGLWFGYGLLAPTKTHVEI
From the text: as §1

NK1 receptors = biological target: T3, NK1 receptors (Oryctolagus cuniculus, UniProt G1SEI7); assay: Isolated smooth muscle: rabbit vena cava (RVC), NK1-mediated contraction; assay type: biochemical
T3 construct: three preparations isolated from smooth muscle were used; from tissue; host or cells: rabbit vena cava
T3 sequence (G1SEI7 1-407): as the sequence (P25103 whole entry) above, with S12F, N189D, P369A, D371E, T376N, C386G, D391N, S402Y, V405M counted along it
From the text: (§2) In order to evaluate the functional activity of the compounds of the invention as antagonists of neurokinins, three preparations isolated from smooth muscle were used: rabbit vena cava (RVC), endothelium-free rabbit pulmonary artery (RPA) and rat portal vein (RatPV) whose contractile responses are respectively mediated by the NK1, NK2 and NK3 receptors as indicated by D. JUKIC et al. (Life Sci. 1991, 49, 1463-1469).
(§3) The antagonistic power of the compounds of the invention was expressed in the form of pA2 as defined by O. […] and H. O. SCHILD (Brit. J. Pharmacol. 1959, 14, 48-58).

NK2 receptors = biological target: T4, NK2 receptors (Oryctolagus cuniculus, UniProt P79218); assay: Isolated smooth muscle: endothelium-free rabbit pulmonary artery (RPA), NK2-mediated contraction; assay type: biochemical
T4 construct: three preparations isolated from smooth muscle were used; from tissue; host or cells: endothelium-free rabbit pulmonary artery
T4 sequence (P79218 1-384): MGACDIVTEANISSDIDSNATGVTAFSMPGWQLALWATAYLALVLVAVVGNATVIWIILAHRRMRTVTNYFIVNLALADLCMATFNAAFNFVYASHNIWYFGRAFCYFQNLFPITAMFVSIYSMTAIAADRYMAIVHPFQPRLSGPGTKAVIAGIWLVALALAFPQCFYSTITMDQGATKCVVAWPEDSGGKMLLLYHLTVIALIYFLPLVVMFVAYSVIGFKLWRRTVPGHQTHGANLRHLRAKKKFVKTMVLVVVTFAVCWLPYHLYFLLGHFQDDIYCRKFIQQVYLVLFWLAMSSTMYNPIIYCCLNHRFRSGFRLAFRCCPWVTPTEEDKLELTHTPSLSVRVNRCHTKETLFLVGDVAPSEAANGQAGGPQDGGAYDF
From the text: as §2, §3

NK3 receptors = biological target: T5, NK3 receptors (Rattus norvegicus, UniProt P16177); assay: Isolated smooth muscle: rat portal vein (RatPV), NK3-mediated contraction; assay type: biochemical
T5 construct: three preparations isolated from smooth muscle were used; from tissue; host or cells: rat portal vein
T5 sequence (P16177 1-452): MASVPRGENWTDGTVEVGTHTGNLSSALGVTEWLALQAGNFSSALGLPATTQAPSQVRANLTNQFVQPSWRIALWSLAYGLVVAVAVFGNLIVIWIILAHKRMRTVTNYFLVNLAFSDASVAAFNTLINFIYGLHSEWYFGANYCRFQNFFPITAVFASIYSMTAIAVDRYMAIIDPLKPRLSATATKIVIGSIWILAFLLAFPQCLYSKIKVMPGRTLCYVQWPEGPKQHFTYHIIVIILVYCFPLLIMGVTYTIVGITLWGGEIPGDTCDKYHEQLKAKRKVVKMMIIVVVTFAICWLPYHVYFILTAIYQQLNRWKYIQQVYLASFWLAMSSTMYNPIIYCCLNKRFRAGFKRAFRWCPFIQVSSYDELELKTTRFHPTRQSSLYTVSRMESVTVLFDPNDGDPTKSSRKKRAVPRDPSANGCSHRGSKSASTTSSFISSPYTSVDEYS
From the text: as §2, §3

mice (CD1 male) = assay: animal or person; assay type: in vivo; conditions: iv
guinea pigs = assay: Inhibition of plasma extravasation induced by substance P in guinea pig bladder; assay type: in vivo; conditions: 0.1 mg/kg intravenously 5 minutes before substance P (1 μg/kg iv)
Description: The effect of the compounds on plasma extravasation caused by intravenous injection of substance P (1 μg/kg) in guinea pigs was evaluated on the bladder, according to the method described for rats by C. GARRET et al. (Proc. Natl. Acad. Sci., USA 1991, 88, 10208-20212). Vesical accumulation of Evans blue injected IV at the same time as substance P and 10 minutes before sacrificing, was quantified by spectrophotometry after extraction of the colorant with acetone. The inhibitory activity of the compounds administered intravenously 5 minutes before substance P was expressed as % inhibition compared with a control batch (8 animals per batch).

male Hartley guinea pigs = assay: Inhibition of bronchoconstriction induced by substance P in guinea pigs; assay type: in vivo; conditions: dose of 1 μmol/kg i.v.
Description: The study is carried out on male Hartley guinea pigs (Charles River) of a mean weight of 300 to 400 g. […] The animals were pretreated with pyrilamine (1 mg/kg iv), propanolol (1 mg/kg iv). The criterion for assessing the bronchoconstriction is the increase in the tracheal insufflation pressure (TIP) induced by the injection of substance P via the iv route at the dose of 2 nM/kg iv, each animal being its own control. The injection of the test product being carried out relative to the time TO injection of the product. The results are expressed as percentage inhibition of the substance P-induced bronchoconstriction, this percentage being calculated according to the following formula: (ΔTIP before product-ΔTIP after product)/ΔTIP before product (expressed as percentage).

[1] = test system: peritoneal mast cells of male rats; assay: Mast cell degranulation in vitro (histamine release); assay type: cell-based; conditions: rat peritoneal mast cells, 20 min incubation, up to the concentration of 10^-4 M
Description: The studies are carried out on peritoneal mast cells of male rats: Sprague-Dawley of mean weight 350 to 400 g and are killed by euthanasia by inhalation of CO2. A peritoneal lavage is carried out with 20 ml of buffer (NaCl 150 mM, KCl 2.7 mM, CaCl2, 0.9 mM, Na2 HPO4, 3 mM, KH2 PO4, 3.5 mM, glucose 5.6 mM, bovine serum albumin 1 mg/ml, pH 6.8).
The lavage liquid is centrifuged at 400 g for 10 min at 4° C. and taken up in a buffer at a density of 2×10^4 mast cells/mi. The compounds are incubated at an increasing concentration for 20 min. The reaction is stopped by placing the tubes on ice and a centrifugation is carried out with 700 g for 10 min at 4° C. The supernatant and the pellet are tested by fluorimetry after condensation with o-phthaldehyde. The histamine released from the cells into the supernatant thus assayed is expressed as percentage of the total histamine content of the cells.

| SMILES | Ki (human receptors NK1) [nM] | Ki (human receptors NK2) [nM] | NK1 (VCL) pA2 (NK1 receptors) | NK2 (APL) pA2 (NK2 receptors) | NK3 (VPR) pA2 (NK3 receptors) | ED50 (dose which increases the reaction time by 50%) (mice (CD1 male); mouse, in vivo) [mg/kg] | % inhibition of substance P-induced plasma extravasation (bladder) (guinea pigs) [%] | % Inhibition of substance P-induced bronchoconstriction (male Hartley guinea pigs) [%] | Mast cell degranulation (histamine release) [1] | ED50 (mice (CD1 male); Mus musculus, read-out: ED50 (dose which increases the reaction time by 50%)) [mg/kg] |
| --- | --- | --- | --- | --- | --- | --- | --- | --- | --- | --- |
| CN(Cc1ccccc1)C(=O)C(CC1CCc2ccccc2C1)NC(=O)C1CC(O)CN1C(=O)c1cn(CCCCc2nn[n-]n2)c2ccccc12.[K+] (mixture of isomers) [Example 3, {1-[4-(1H-tetrazol-5-yl)butyl]indol-3-yl}carbonyl-Hyp-Thn-NMeBzl, potassiu m salt] | 14 | 1400 | 7.87 | 5.87 | 5.87 |  |  |  |  |  |
| CN(Cc1ccccc1)C(=O)C(Cc1ccc2ccccc2c1)NC(=O)C1CC(O)CN1C(=O)c1cn(CCCCc2nn[n-]n2)c2ccccc12.[K+] (stereo not drawn) [Example 1, {1-[4-(1H-tetrazol-5-yl)butyl]indol-3-yl}carbonyl-Hyp-Nal-NMeBzl, potassiu m salt] |  | 2400 | 9.57 | 5.57 | 4.96 | 0.018 | 56 | 95 | does not cause mast cell degranulation |  |
| CN(Cc1ccccc1)C(=O)C(Cc1ccc2c(c1)CCCC2)NC(=O)C1CC(O)CN1C(=O)c1cn(CCCCc2nn[n-]n2)c2ccccc12.[K+] (stereo not drawn) [Example 2, {1-[4-(1H-tetrazol-5-yl)butyl]indol-3-yl}carbonyl-Hyp-Tna-NMeBzl, potassiu m salt] | 14 | 3600 | 8.17 | 6.47 | 5.87 |  |  |  |  |  |
| CN(Cc1ccccc1)C(=O)C(Cc1ccc2ccccc2c1)NC(=O)C1CC(O)CN1C(=O)c1cn(Cc2nn[n-]n2)c2ccccc12.[K+] (stereo not drawn) [Example 4, {1-[(1H-tetrazol-5-yl)methyl]indol-3-yl}carbonyl-Hyp-Nal-NMeBzl,potassium salt] | 0.78 | > 1000 | 8.14 |  | 5.84 |  |  | 61 |  |  |
| CN(Cc1ccccc1)C(=O)C(Cc1ccc2ccccc2c1)NC(=O)C1CC(O)CN1C(=O)c1cn(CCc2nn[nH]n2)c2ccccc12 (stereo not drawn) [Example 5, {1-[2-(1H-tetrazol-5-yl)ethyl]indol-3-yl}carbonyl-Hyp-Nal-NMeBzl, potassiu m salt] | 0.63 | > 10000 |  |  |  |  |  |  |  |  |
| CN(Cc1ccccc1)C(=O)C(Cc1ccc2ccccc2c1)NC(=O)C1CC(O)CN1C(=O)c1cn(CCCc2nn[n-]n2)c2ccccc12.[K+] (stereo not drawn) [Example 6, [1-[3-(1H-tetrazol-5-yl)propyl]indol-3-yl}carbonyl-Hyp-Nal-NMeBzl, potassium salt] | 1.2 | > 1000 | 8.46 | 5.20 |  |  |  | 60 |  |  |
| CN(Cc1ccccc1)C(=O)C(Cc1ccc2ccccc2c1)NC(=O)C1CC(O)CN1C(=O)c1cn(CCCCCc2nn[n-]n2)c2ccccc12.[K+] (stereo not drawn) [Example 7, {1-[5-(1H-tetrazol-5-yl)pentyl]indol-3-yl}carbonyl-Hyp-Nal-NMeBzl, potassium salt] | 5.9 | 10000 | 7.88 |  |  |  |  | 58 |  |  |
| CN(Cc1ccccc1)C(=O)C(Cc1cccs1)NC(=O)C1CC(O)CN1C(=O)c1cn(CCCCc2nn[nH]n2)c2ccccc12 (stereo not drawn) [Example 8, {1-[4-(1H-tetrazol-5-yl)butyl]indol-3-yl}carbonyl-Hyp-Thi-NMeBzl, potassiu m salt] | 110 | > 1000 |  |  |  |  |  |  |  |  |
| CN(Cc1ccccc1)C(=O)C(Cc1ccc(Cl)cc1)NC(=O)C1CC(O)CN1C(=O)c1cn(CCCCc2nn[nH]n2)c2ccccc12 (stereo not shown) [Example 9, {1-[4-(1H-tetrazol-5-yl)butyl]indol-3-yl}carbonyl-Hyp-(4-chloro)Phe-NMeBz potassium salt] | 22 | 3900 |  |  |  |  |  |  |  |  |
| COc1ccc(CC(NC(=O)C2CC(O)CN2C(=O)c2cn(CCCCc3nn[nH]n3)c3ccccc23)C(=O)N(C)Cc2ccccc2)cc1OC (stereo not shown) [Example 10, {1-[4-(1H-tetrazol-5-yl)butyl]indol-3-yl}carbonyl-Hyp-(3,4-dimethoxy)Phe-NMeBzl, potassium salt] | 180 | > 10000 |  |  |  |  |  |  |  |  |
| CN(Cc1ccccc1)C(=O)C(CC1CCCCC1)NC(=O)C1CC(O)CN1C(=O)c1cn(CCCCc2nn[nH]n2)c2ccccc12 (stereo not drawn) [Example 11, {1-[4-(1H-tetrazol-5-yl)butyl]indol-3-yl}carbonyl-Hyp-Cha-NMeBzl, potassium salt] | 52 | > 1000 |  |  |  |  |  |  |  |  |
| CN1CC[C@]23c4c5ccc(O)c4O[C@H]2[C@@H](O)C=C[C@H]3[C@H]1C5 [morphine, reference compound] |  |  |  |  |  |  |  |  |  | 0.3 |
